Experiments:
human α7 receptor = target: T1, human α7 receptor (Homo sapiens, UniProt P36544); assay: α7 NNR flux assay (FDSS Ca assay, positive allosteric modulation of acetylcholine response); type: cell-based; conditions: human α7 receptor stably expressed in rat GH4C1 cells; acetylcholine 20 μM; % modulation relative to PNU-120596 set to 100%
T1 construct: host or cells: rat GH4C1 cell line
Method: The nicotinic acetylcholine receptor α7 is a calcium-permeable ion channel, whose activity can be measured by over expression in mammalian cells or oocytes. In this version of the assay, the human α7 receptor is stably expressed in the rat GH4C1 cell line. The assay was used to identify positive allosteric modulators (PAMs) of the α7 receptor. Activation of the channel was measured by loading cells with the calcium-sensitive fluorescent dye. Calcium-4 (Assay kit from Molecular Devices), and then measuring real-time changes, in fluorescence upon treatment with test compounds.
The cell line ChanClone GH4C1-nAChRalpha7 from Genionics was seeded from frozen stock in 384-well plates in culture media 2-3 days before experiment to form an approximately 80% confluent layer on the day of experiment.
The cell culture were split into “22.5 cm×22.5 cm”-plates with approximately 100×10^3 cells/cm^2. After four days incubation in a humidified incubator at 37° C. and 5% CO2, it had grown to an 80-90% confluent layer, and the cells were harvested.
Two or three days before the experiment the cells were seeded in 384 well plates from Greiner bio-one (781946, CELLCOAT, Poly-D-Lysine, black, μClear).
The cells were seeded in 384 well plates with 30 μL/well (30000 cells/well) while stirring the cell suspension or otherwise preventing the cells from precipitating.
The loading buffer was 5% v/v Calcium-4 Kit and 2.5 mM Probenecid in assay buffer.
Culture media was removed from the cell plates and 20 μL loading buffer was added in each well. The cell plates were placed in trays and incubated 90 minutes in the incubator (37° C.). Thereafter the plates were incubated 30 minutes at room temperature, still protected from light.
The assay buffer was HBSS with 20 mM HEPES, pH 7.4 and 3 mM CaCl2.
[…] 10 mM compound solution in DMSO was diluted in 50 μL assay buffer. The final test concentrations in the cell plates were 20-10-5-2.5-1.25-0.625-0.312-0.156-0.078-0.039 μM. Assay buffer and 3 μM PNU-120596 were used for control. The agonist acetylcholine was added to a final concentration of 20 μM (˜EC100). In the FDSS7000 the Ex480-Em540 was measured with 1 second intervals. The baseline was made of 5 frames before addition of test compounds, and 95 frames more were made before addition of acetylcholine. The measurement stopped 30 frames after the 2nd addition. Raw data for each well were collected as “the maximum fluorescence count” in the interval 100-131 seconds and as “the average fluorescence count” in the interval 96-100 seconds. The positive allosteric modulation in the 2nd addition was the enhancement of agonist response with test compound compared to agonist alone.
Results were calculated as % modulation of test compound compared to the reference PNU-120596 set to 100%.

α7 nACh receptors = assay: α7 NNR oocyte assay (electrophysiological recordings in Xenopus oocytes); type: cell-based, human or rat; conditions: compound at 10 μM co-applied with ACh (30 μM), fold modulation of the control response; for Fold modulation, peak: peak response; for Fold modulation, AUC: total charge (AUC)
Method: Expression of α7 nACh Receptors in Xenopus Oocytes.
Oocytes were surgically removed from mature female Xenepus laevis anaesthetized in 0.4% MS-222 for 10-15 min. The oocytes were then digested at room temperature for 2-3 hours with 0.5 mg/mL collagenase (type IA Sigma-Aldrich) in OR2 buffer (82.5 mM NaCl, 2.0 mM KCl, 1.0 mM MgCl2 and 5.0 mM HEPES, pH 7.6). Oocytes avoid of the follicle layer were selected and incubated for 24 hours in Modified Barth's Saline buffer (88 mM NaCl, 1 mM KCl, 15 mM HEPES, 2.4 mM NaHCO3, 0.41 mM CaCl2, 0.82 mM MgSO4, 0.3 mM Ca(NO3)2) supplemented with 2 mM sodium pyruvate, 0.1 U/l penicillin and 0.1 μg/1 streptomycin. Stage 1V oocytes were identified and injected with 4.2-48 nl of nuclease free water containing 0.1-1.2 ng of cRNA coding for human α7 nACh receptors or 3.0-32 ng of cRNA coding for rat α7 nACh receptors and incubated at 18° C. for 1-10 days when they were used for electrophysiological recordings.
Electrophysiological Recordings of α7 nACh Receptors Expressed in Oocytes.
Oocytes were used for electrophysiological recordings 1-10 days after injection. Oocytes were placed in a 1 mL bath and perfused with Ringer buffer (115 mM NaCl, 2.5 mM KCl, 10 mM HEPES, 1.8 mM CaCl2, 0.1 mM MgCl2, pH 7.5)'. Cells were impaled with agar plugged 0.2-1 MΩ electrodes containing 3 M KCl and voltage clamped at −90 mV by a GeneClamp 500B amplifier. The experiments were performed at room temperature. Oocytes were continuously perfused with Ringer buffer and the drugs were applied in the perfusate. ACh (30 μM) applied for 30 sec were used as the standard agonist for activation of the α7 nACh receptors. In the standard screening set-up the new test compound (10 μM or 30 μM) were applied for 1 min of pre-application allowing for evaluation of agonistic activity followed by 30 sec of co-application with ACh (30 μM) allowing for evaluation of PAM activity. The response of co-application was compared to the agonistic response obtained with ACh alone. The drug induced effects on both the peak response and the total charge (AUC) response were calculated thus giving the effect of drug induced PAM activity as fold modulation of the control response. Table 2 indicates fold modulation of compounds No. 21, 22, 24, 34, 35 and 36 at determined at 10 μM.
For more elaborate studies doses-response curves can be performed for evaluation of max-fold modulation and EC50 values for both peak and AUC responses.

T1 sequence (P36544 23-502): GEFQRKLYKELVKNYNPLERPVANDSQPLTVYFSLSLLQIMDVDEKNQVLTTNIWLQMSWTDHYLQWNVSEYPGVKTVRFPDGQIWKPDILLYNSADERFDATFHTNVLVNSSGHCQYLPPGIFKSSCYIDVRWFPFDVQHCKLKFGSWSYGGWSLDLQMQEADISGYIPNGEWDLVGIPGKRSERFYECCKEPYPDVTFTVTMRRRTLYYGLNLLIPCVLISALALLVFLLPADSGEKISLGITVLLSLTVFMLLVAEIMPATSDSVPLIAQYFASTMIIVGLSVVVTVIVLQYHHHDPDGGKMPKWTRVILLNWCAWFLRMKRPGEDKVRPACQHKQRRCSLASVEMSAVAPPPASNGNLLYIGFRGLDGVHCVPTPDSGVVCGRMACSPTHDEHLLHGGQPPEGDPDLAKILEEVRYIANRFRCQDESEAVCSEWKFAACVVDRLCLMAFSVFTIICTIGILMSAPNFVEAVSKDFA

Compound	EC50 (human α7 receptor) [µM]	melting point [°C]	Fold modulation, peak (α7 nACh receptors)	Fold modulation, AUC (α7 nACh receptors)
COc1ccc(-n2nc(C)c3c(C(=O)Nc4c(C)ccnc4C)cc(C)nc32)cc1 [Compound 1, 1-(4-Methoxy-phenyl)-3,6-dimethyl-1H-pyrazolo[3,4-b]pyridine-4-carboxylic acid (2,4-dimethyl-pyridin-3-yl)-amide]	3.9	224 to 227	–	–
Cc1cc(C(=O)Nc2c(C)ccnc2C)c2c(C)nn(-c3ccc(S(N)(=O)=O)cc3)c2n1 [Compound 21, 3,6-Dimethyl-1-(4-sulfamoyl-phenyl)-1H-pyrazolo[3,4-b]pyridine-4-carboxylic acid (2,4-dimethyl-pyridin-3-yl)-amide]	≥ 20	–	1.7	1.7
Cc1cc(C(=O)Nc2c(C)ccnc2C)c2c(C)nn(-c3ccc(C(F)(F)F)cc3)c2n1 [Compound 22, 3,6-Dimethyl-1-(4-trifluoromethyl-phenyl)-1H-pyrazolo[3,4-b]pyridine-4-carboxylic acid (2,4-dimethyl-pyridin-3-yl)-amide]	≥ 20	–	8.1	3.2
COc1ccc(-n2nc(OC)c3c(C(=O)Nc4c(C)ccnc4C)cc(C)nc32)cc1 [Compound 24, 3-Methoxy-1-(4-methoxy-phenyl)-6-methyl-1H-pyrazolo[3,4-b]pyridine-4-carboxylic acid (2,4-dimethyl-pyridin-3-yl)-amide]	≥ 20	–	5.1	2.5
COc1nccc(C)c1NC(=O)c1cc(C)nc2c1c(C)nn2-c1ccccc1 [Compound 27, 3,6-Dimethyl-1-phenyl-1H-pyrazolo[3,4-b]pyridine-4-carboxylic acid (2-methoxy-4-methyl-pyridin-3-yl)-amide]	5	172 to 174	–	–
COc1cc(C)ncc1NC(=O)c1cc(C)nc2c1c(C)nn2-c1ccccc1 [Compound 29, 3,6-Dimethyl-1-phenyl-1H-pyrazolo[3,4-b]pyridine-4-carboxylic acid (4-methoxy-6-methyl-pyridin-3-yl)-amide]	5.1	206 to 207	–	–
Cc1cc(C(=O)Nc2cccnc2C)c2c(C)nn(-c3ccccc3)c2n1 [Compound 31, 3,6-Dimethyl-1-phenyl-1H-pyrazolo[3,4-b]pyridine-4-carboxylic acid (2-methyl-pyridin-3-yl)-amide]	5.6	208 to 209	–	–
Cc1cc(C(=O)Nc2cnccc2C)c2c(C)nn(-c3ccccc3)c2n1 [Compound 32, 3,6-Dimethyl-1-phenyl-1H-pyrazolo[3,4-b]pyridine-4-carboxylic acid (4-methyl-pyridin-3-yl)-amide]	6.2	227 to 228	–	–
Cc1cc(C(=O)Nc2c(C)ccnc2C)c2c(C)nn(-c3ccc(S(C)(=O)=O)cc3)c2n1 [Compound 34, 1-(4-Methanesulfonyl-phenyl)-3,6-dimethyl-1H-pyrazolo[3,4-b]pyridine-4-carboxylic acid (2,4-dimethyl-pyridin-3-yl)-amide]	≥ 20	–	1.9	1.9
COc1ccc(-n2nc(C)c3c(C(=O)Nc4c(C)ccnc4C)cc(-c4ccccc4)nc32)cc1 [Compound 35, 1-(4-Methoxy-phenyl)-3-methyl-6-phenyl-1H-pyrazolo[3,4-b]pyridine-4-carboxylic acid (2,4-dimethyl-pyridin-3-yl)-amide]	≥ 20	–	14	9.2
COc1ccc(-n2nc(C)c3c(C(=O)Nc4cnccc4C#N)cc(C)nc32)cc1 [Compound 36, 1-(4-Methoxy-phenyl)-3,6-dimethyl-1H-pyrazolo[3,4-b]pyridine-4-carboxylic acid (4-cyano-pyridin-3-yl)-amide]	≥ 20	–	7.9	3.9

— patent publication US20130005743A1, “New positive allosteric modulators of nicotinic acetylcholine receptor” (H. Lundbeck A/S, priority 2011, published 2013)
